Measurements: BindingDB's records for doi:10.1021/jm060521i (Karo Bio, 2006)

Target: T1, Thyroid hormone receptor alpha (Homo sapiens, UniProt P10827)
T1 sequence (P10827 whole entry): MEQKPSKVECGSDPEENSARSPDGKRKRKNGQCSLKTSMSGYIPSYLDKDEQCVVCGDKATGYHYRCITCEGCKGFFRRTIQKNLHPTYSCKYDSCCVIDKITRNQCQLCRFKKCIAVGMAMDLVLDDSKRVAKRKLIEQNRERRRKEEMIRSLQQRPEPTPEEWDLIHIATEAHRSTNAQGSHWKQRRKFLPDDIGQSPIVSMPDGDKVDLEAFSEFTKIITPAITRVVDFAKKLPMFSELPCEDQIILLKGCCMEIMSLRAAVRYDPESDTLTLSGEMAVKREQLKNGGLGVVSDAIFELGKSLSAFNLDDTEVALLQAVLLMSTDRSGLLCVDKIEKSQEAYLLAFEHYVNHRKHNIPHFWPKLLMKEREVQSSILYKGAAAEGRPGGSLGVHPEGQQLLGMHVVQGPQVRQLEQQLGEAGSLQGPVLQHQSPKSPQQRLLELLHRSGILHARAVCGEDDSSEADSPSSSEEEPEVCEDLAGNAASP
Assay: TRalpha-Binding Assay and Thyroid Response Element (TRAFalpha1) Reporter Assay.
Settings: pH 7; 4 °C
Excerpt: EC50 is the concentration of compound required to inhibit 50% of T3-induced TRalpha-activation in CHOK1 cells stably transfected with hTRalpha using alkaline phosphatase reporter assay.

## CC(C)c1cc(Oc2c(Br)cc(CCC(=O)O)cc2Br)cc(/C=C/c2ccncc2)c1O [3-{3,5-dibromo-4-[4-hydroxy-3-(propan-2-yl)-5-[(E)-2-(pyridin-4-yl)ethenyl]phenoxy]phenyl}propanoic acid]
  EC50: 0.032 µM
